Experiment in all cases: kinase selectivity panel
Common to all, as to assay type: biochemical

One test addresses T1, DDR2 (Homo sapiens, UniProt Q16832).
T1 construct: purchased Eurofins Pharma Discovery Services (KinaseProfiler; Cerep BioPrint panel)
T1 sequence (Q16832 22-855): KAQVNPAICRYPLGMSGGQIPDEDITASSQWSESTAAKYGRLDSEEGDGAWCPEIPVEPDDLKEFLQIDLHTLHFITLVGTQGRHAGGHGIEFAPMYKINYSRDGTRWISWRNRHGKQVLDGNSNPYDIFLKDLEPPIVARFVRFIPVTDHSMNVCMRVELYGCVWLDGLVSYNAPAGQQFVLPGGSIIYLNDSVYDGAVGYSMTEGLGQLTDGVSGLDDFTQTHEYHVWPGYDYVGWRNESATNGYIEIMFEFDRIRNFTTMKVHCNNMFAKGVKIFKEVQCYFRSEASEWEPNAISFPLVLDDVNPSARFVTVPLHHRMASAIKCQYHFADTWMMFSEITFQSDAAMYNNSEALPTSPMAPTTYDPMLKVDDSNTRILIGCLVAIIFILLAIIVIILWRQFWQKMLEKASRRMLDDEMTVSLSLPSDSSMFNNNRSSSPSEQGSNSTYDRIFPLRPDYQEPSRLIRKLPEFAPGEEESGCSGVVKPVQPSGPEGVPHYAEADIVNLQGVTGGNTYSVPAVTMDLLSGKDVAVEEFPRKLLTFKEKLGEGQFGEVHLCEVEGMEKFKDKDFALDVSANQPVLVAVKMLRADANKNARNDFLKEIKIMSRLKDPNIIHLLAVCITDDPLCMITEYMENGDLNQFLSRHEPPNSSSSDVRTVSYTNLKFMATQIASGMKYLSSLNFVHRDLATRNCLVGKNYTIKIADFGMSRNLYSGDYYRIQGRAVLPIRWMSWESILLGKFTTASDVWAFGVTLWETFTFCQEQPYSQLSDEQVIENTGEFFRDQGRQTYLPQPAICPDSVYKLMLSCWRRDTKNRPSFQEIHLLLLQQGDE
The following applies: for remaining activity at 10 µM: read-out: percentage of control activity (POC), DDR2. Put shortly:
(§1)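 IC50 values derive from 9 duplicate concentrations, run only for activities picked after an initial 10 μM duplicate screen across 125 representative kinases.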

In the next test the target is T2, CK2α2 (Homo sapiens, UniProt P19784).
T2 construct: purchased Eurofins Pharma Discovery Services (KinaseProfiler; Cerep BioPrint panel)
The following applies: read-out: percentage of control activity (POC), CK2α2. The gist of the method: as §1

In another test the target is T3, JNK3 (Homo sapiens, UniProt P53779).
T3 construct: purchased Eurofins Pharma Discovery Services (KinaseProfiler; Cerep BioPrint panel)
The following applies: read-out: percentage of control activity (POC), JNK3. The gist of the method:
as §1

The next test deals with T4, JAK2 (Homo sapiens, UniProt O60674).
T4 construct: purchased Eurofins Pharma Discovery Services (KinaseProfiler; Cerep BioPrint panel)
The following applies: read-out: percentage of control activity (POC), JAK2. Put shortly: as §1

The target in a further test is T5, CaMKIIγ (Homo sapiens, UniProt Q13555).
T5 construct: purchased Eurofins Pharma Discovery Services (KinaseProfiler; Cerep BioPrint panel)
The following applies: read-out: percentage of control activity (POC), CaMKIIγ. The gist of the method:
as §1

The target of the next test is T6, MAPKAP-K2 (Homo sapiens, UniProt P49137).
T6 construct: purchased Eurofins Pharma Discovery Services (KinaseProfiler; Cerep BioPrint panel)
The following applies: read-out: percentage of control activity (POC), MAPKAP-K2. Put shortly:
as §1

In the next test the target is T7, GSK3α (Homo sapiens, UniProt P49840).
T7 construct: purchased Eurofins Pharma Discovery Services (KinaseProfiler; Cerep BioPrint panel)
The following applies: read-out: percentage of control activity (POC), GSK3α. Put shortly: as §1

In a further test the target is T8, PI3K (p110a/p85a) (Homo sapiens, UniProt P42336).
T8 construct: purchased Eurofins Pharma Discovery Services (KinaseProfiler; Cerep BioPrint panel)
The following applies: read-out: percentage of control activity (POC), PI3K (p110a/p85a). Put shortly: as §1

Another test has as its target T9, Lyn (Homo sapiens, UniProt P07948).
T9 construct: purchased Eurofins Pharma Discovery Services (KinaseProfiler; Cerep BioPrint panel)
The following applies: read-out: percentage of control activity (POC), Lyn. Put shortly:
as §1

For another test, the target named is T10, PKCδ (Homo sapiens, UniProt Q05655).
T10 construct: purchased Eurofins Pharma Discovery Services (KinaseProfiler; Cerep BioPrint panel)
The following applies: read-out: percentage of control activity (POC), PKCδ. Put shortly:
as §1

Another test deals with T11, JNK2α2 (Homo sapiens, UniProt P45984).
T11 construct: purchased Eurofins Pharma Discovery Services (KinaseProfiler; Cerep BioPrint panel)
The following applies: read-out: percentage of control activity (POC), JNK2α2. Put shortly: as §1

In a further test the target is T12, PI3K (p110b/p85a) (Homo sapiens, UniProt P42338).
T12 construct: purchased Eurofins Pharma Discovery Services (KinaseProfiler; Cerep BioPrint panel)
The following applies: read-out: percentage of control activity (POC), PI3K (p110b/p85a). Put shortly: as §1

A further test concerns the target T13, FGFR4 (Homo sapiens, UniProt P22455).
T13 construct: purchased Eurofins Pharma Discovery Services (KinaseProfiler; Cerep BioPrint panel)
The following applies: read-out: percentage of control activity (POC), FGFR4. The gist of the method:
as §1

A further test concerns the target T14, MAPK2 (Homo sapiens, UniProt P28482).
T14 construct: purchased Eurofins Pharma Discovery Services (KinaseProfiler; Cerep BioPrint panel)
The following applies: read-out: percentage of control activity (POC), MAPK2. The gist of the method: as §1

The target of another test is T15, Lck (Homo sapiens, UniProt P06239).
T15 construct: Eurofins Pharma Discovery Services (contract assay service)
The following applies: for remaining activity at 10 µM: read-out: percentage of control activity (POC), Lck. The gist of the method:
as §1

For a further test, the target named is T16, Itk (Homo sapiens, UniProt Q08881).
T16 construct: purchased Eurofins Pharma Discovery Services (KinaseProfiler; Cerep BioPrint panel)
T16 sequence (Q08881 1-620): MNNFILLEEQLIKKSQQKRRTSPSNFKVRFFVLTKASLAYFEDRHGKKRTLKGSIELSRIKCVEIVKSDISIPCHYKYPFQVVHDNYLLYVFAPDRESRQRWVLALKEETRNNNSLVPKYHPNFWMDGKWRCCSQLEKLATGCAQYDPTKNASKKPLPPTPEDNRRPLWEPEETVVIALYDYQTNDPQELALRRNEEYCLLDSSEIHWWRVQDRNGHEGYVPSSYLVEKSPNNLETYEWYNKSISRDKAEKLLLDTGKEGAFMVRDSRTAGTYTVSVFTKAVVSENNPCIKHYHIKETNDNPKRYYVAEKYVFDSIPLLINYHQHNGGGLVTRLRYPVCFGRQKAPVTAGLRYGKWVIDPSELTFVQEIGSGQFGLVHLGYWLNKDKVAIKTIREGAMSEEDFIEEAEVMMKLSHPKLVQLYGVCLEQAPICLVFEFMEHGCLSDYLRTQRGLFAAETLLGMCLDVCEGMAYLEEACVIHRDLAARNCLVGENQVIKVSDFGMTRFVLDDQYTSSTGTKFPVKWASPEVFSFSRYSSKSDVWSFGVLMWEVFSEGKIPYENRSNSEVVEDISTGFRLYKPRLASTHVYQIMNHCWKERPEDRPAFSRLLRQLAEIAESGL
The following applies: read-out: percentage of control activity (POC), Itk. The gist of the method: as §1

As usually defined, the inhibition is the change of the read-out against control, counted positive when it falls. Lower therefore signals a weak effect. Broadly, the IC50 is the concentration that inhibits the measured activity by half.

T8 sequence (P42336 whole entry): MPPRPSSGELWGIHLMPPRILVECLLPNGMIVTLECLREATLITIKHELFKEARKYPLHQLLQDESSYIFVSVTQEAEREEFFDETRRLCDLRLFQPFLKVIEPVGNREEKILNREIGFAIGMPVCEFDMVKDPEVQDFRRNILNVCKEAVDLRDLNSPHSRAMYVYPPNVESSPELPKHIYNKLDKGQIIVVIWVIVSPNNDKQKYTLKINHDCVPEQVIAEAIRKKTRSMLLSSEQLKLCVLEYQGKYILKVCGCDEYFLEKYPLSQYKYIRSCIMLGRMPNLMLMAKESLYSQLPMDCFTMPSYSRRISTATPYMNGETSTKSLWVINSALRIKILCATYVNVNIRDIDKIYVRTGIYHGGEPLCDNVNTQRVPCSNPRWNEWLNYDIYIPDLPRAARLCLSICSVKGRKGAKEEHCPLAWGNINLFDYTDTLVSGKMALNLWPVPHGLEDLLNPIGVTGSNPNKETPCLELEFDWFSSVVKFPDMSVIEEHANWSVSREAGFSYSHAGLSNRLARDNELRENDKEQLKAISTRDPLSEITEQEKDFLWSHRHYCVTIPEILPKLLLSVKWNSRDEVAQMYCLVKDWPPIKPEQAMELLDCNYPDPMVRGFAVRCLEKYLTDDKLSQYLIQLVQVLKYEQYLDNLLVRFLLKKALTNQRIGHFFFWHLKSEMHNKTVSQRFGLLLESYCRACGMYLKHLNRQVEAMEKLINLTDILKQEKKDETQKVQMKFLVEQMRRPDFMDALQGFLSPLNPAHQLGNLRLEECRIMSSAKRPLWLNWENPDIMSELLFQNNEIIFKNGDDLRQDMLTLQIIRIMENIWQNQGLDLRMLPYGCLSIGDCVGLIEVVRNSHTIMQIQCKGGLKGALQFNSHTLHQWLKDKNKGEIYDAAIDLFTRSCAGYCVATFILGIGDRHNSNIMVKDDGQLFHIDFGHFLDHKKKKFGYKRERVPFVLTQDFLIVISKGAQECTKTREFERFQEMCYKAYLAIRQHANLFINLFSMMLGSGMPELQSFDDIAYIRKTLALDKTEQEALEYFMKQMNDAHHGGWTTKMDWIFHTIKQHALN
T8 sequence (P27986 whole entry partner): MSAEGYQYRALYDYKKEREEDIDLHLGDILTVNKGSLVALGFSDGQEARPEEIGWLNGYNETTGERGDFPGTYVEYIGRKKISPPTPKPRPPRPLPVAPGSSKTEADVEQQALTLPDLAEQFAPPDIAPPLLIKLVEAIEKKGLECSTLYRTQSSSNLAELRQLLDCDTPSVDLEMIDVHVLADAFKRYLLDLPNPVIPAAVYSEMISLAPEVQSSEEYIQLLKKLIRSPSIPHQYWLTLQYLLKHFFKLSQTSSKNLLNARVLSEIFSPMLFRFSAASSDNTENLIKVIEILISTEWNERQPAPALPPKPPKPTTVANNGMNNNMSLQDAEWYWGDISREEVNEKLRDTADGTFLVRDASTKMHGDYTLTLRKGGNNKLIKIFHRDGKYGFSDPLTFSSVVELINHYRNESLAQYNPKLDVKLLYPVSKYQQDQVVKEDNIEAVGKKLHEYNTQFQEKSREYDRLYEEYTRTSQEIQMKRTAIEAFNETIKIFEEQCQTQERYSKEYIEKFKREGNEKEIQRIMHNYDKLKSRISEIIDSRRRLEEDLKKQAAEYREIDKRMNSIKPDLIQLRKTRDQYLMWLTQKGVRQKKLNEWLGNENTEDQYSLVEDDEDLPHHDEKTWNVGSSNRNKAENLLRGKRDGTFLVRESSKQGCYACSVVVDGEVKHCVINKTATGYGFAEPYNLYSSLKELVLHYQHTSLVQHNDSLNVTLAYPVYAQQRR
T13 sequence (P22455 22-802): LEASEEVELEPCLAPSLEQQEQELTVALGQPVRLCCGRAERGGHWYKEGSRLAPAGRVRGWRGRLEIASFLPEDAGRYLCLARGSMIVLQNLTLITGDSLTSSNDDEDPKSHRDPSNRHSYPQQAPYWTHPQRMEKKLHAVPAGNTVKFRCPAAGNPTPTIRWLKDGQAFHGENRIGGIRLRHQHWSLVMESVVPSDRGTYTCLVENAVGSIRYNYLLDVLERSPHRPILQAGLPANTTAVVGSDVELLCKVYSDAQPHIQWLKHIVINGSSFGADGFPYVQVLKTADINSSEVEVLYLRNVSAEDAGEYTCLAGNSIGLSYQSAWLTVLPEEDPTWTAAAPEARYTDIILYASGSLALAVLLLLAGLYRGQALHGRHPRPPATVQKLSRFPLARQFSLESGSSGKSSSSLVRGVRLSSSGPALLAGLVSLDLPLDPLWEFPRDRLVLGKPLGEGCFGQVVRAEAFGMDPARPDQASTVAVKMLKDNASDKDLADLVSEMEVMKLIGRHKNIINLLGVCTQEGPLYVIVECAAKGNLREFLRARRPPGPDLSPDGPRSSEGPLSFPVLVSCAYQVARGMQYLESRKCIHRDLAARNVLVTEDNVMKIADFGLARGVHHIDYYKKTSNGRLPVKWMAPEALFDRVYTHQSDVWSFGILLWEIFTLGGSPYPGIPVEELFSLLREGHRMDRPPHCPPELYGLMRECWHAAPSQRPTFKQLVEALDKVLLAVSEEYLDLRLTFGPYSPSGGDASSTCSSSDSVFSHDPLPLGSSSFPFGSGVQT
T14 sequence (P28482 whole entry): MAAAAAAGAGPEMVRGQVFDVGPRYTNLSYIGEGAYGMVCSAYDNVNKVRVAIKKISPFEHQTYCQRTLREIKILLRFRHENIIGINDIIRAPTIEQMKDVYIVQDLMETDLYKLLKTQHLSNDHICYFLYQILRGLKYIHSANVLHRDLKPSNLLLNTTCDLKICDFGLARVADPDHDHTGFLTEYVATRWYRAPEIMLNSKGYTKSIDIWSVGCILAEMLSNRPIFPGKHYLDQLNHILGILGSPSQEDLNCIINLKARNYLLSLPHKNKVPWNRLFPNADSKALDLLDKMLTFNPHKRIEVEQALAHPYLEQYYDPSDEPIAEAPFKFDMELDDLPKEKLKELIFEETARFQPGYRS
T15 sequence (P06239 whole entry, species assumed): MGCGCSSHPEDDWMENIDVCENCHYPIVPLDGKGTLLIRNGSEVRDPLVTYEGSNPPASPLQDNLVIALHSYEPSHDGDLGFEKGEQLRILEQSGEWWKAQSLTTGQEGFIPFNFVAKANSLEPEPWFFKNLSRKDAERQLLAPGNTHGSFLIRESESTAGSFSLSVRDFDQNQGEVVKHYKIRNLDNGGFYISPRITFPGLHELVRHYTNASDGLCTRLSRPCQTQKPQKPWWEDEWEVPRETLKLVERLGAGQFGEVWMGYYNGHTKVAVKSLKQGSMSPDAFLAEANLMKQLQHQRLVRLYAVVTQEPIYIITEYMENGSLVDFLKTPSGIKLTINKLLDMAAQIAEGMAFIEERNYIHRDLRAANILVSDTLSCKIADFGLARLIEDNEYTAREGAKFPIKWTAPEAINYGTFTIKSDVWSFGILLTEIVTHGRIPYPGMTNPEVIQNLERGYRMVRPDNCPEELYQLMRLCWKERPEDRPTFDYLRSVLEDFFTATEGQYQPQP
T4 sequence (O60674 whole entry): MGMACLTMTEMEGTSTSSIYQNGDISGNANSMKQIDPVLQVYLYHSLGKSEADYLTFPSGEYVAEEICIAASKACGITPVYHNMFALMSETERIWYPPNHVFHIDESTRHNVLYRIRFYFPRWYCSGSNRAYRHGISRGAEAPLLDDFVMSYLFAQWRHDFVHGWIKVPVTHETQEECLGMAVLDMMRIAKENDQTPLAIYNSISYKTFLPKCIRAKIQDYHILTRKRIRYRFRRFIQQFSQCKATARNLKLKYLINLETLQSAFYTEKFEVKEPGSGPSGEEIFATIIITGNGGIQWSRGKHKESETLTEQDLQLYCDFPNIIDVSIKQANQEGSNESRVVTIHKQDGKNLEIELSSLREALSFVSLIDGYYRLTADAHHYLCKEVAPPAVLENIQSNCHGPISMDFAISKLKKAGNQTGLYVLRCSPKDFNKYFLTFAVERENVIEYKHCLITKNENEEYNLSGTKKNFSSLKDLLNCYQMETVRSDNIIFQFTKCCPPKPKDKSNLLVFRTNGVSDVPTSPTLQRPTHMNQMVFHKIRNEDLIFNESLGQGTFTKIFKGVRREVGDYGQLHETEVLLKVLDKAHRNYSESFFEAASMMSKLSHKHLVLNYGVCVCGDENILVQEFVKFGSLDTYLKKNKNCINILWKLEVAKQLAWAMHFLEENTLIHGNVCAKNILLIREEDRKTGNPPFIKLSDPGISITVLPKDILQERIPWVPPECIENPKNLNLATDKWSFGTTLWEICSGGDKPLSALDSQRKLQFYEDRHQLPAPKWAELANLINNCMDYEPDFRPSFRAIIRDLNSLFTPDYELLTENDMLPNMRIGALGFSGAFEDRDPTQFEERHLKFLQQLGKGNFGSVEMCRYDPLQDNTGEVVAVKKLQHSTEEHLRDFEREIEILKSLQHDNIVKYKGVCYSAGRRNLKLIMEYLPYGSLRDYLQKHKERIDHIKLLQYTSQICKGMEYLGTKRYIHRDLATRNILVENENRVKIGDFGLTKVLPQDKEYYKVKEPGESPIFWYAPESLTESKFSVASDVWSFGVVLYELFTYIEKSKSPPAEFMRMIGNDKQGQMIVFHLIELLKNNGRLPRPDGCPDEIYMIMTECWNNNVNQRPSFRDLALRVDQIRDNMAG
T6 sequence (P49137 whole entry): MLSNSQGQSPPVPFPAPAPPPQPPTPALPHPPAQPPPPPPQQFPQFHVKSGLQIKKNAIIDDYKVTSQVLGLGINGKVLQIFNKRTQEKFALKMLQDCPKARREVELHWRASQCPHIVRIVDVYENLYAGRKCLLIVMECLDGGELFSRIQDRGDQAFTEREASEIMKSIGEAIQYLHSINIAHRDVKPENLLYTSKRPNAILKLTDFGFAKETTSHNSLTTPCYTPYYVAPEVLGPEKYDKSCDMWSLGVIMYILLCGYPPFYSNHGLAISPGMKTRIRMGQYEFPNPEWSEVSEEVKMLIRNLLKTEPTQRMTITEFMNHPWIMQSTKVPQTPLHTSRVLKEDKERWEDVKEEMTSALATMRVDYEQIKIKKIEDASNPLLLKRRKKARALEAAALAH

As for `CC(C)(C)N1CCC(c2cc(-c3ccc(F)cc3Cl)c3cc[n+]([O-])c(-c4c(Cl)cccc4Cl)c3n2)CC1` [compound 2], the remaining activity at 10 µM was found to be 94% on DDR2; 105% at CK2α2; 97% at JNK3; 105% on JAK2; 91% at CaMKIIγ; 108% at MAPKAP-K2. Moreover, the remaining activity at 10 µM on GSK3α turned out to be 107%; on PI3K (p110a/p85a), 97%; on Lyn, 104%; on PKCδ, 109%; on JNK2α2, 101%; at PI3K (p110b/p85a), 92%. Also, the remaining activity at 10 µM at FGFR4 came to 88%; at MAPK2 it was 105%; on Lck (10 μM), 98%; on Itk, 110%.
In the case of `Cc1ccc(C(=O)NCC2CC2)cc1-c1ccc2c(c1)NC(=O)C21CCCC1` [compound 3], the remaining activity at 10 µM at DDR2 came out at 71%; on CK2α2, 108%; at JNK3 it was 65%; on JAK2, 108%; at CaMKIIγ it was 103%; on MAPKAP-K2, 106%. Further, the remaining activity at 10 µM at GSK3α was determined as 95%; on PI3K (p110a/p85a), 94%; at Lyn, 101%; on PKCδ it was 104%; on JNK2α2, 94%; on PI3K (p110b/p85a), 86%. Also, the remaining activity at 10 µM at FGFR4 came to 91%; on MAPK2, 97%; on Lck (10 μM), 102%; at Itk, 103%.
For `Cn1cc(-c2cccc(-c3nc(C(=O)NC4C5CC6CC4CC(O)(C6)C5)c(N)nc3N)c2)cn1` (stereo not drawn) [compound 4], the inhibition at 10 µM on DDR2 was 53%; on Lck (10 μM), 56%. The remaining activity at 10 µM at DDR2 came out at 47%; at CK2α2, 105%; on JNK3, 72%; on JAK2, 88%; at CaMKIIγ it was 83%; at MAPKAP-K2, 107%. In addition, the remaining activity at 10 µM on GSK3α worked out at 76%; on PI3K (p110a/p85a), 60%; on Lyn, 66%; on PKCδ, 97%; at JNK2α2 it was 98%; at PI3K (p110b/p85a), 71%. The remaining activity at 10 µM on FGFR4 was 86%; at MAPK2, 97%; on Lck (10 μM) it was 44%; at Itk, 109%. The IC50 at Lck (biochemical dose response, duplicate, read-out: Inhibition of indicated activity (IC50, μM): Lck) came to 3.33 µM.
Turning to `CS(=O)(=O)N1CCN(c2ccc(Nc3ncc(C(N)=O)c(NC4CC4)n3)cc2)CC1` [compound 5], the remaining activity at 10 µM on DDR2 is 28%; at CK2α2, 43%; on JNK3, -4%; at JAK2, -3%; on CaMKIIγ, 24%; on MAPKAP-K2, 85%. For the same molecule, the remaining activity at 10 µM on GSK3α was determined as 40%; on PI3K (p110a/p85a), 96%; at Lyn, 5%; on PKCδ it was 8%; on JNK2α2, 8%; on PI3K (p110b/p85a), 93%. Further, the remaining activity at 10 µM on FGFR4 is 73%; at MAPK2, 49%; on Lck (10 μM), 4%; on Itk, 3%.
`COc1c(NC(=O)c2ccc(C)c(-c3nnc4c(NCC(C)(C)C)nccn34)c2)cc(C(C)(C)C)cc1NS(C)(=O)=O` [compound 7, reference compound] had an inhibition at 10 µM against DDR2 of 97%. Also, the remaining activity at 10 µM on DDR2 came out at 3%; on CK2α2 it was 114%; at JNK3, 75%; on JAK2 it was 104%; at CaMKIIγ, 102%; at MAPKAP-K2, 110%. Moreover, the remaining activity at 10 µM at GSK3α amounted to 103%; at PI3K (p110a/p85a) it was 95%; on Lyn, 66%; at PKCδ, 107%; on JNK2α2, 91%; at PI3K (p110b/p85a) it was 87%. Besides, the remaining activity at 10 µM on FGFR4 came to 89%; on MAPK2, 99%; at Lck (10 μM) it was 81%; at Itk, 114%.
